# Earlier results, collected in US7084135B1, “Prenyl transferase inhibitors” (Societe de Conseils de Recherches et d'Applications …, priority 1998, dated 2006).
# Columns and labels:
# DU145 adenocarcinoma = settings: Prostate: DU145 adenocarcinoma, with WT ras
# HT29, adenocarcinoma = settings: Colon: HT29, adenocarcinoma with Wild Type ras (WT)
structure (smiles),measurement,setting,value
CC[C@H](C)[C@@H](COC(Cc1ccccc1)C(=O)N[C@@H](CCS(C)(=O)=O)C(=O)OC(C)C)NC[C@@H](N)CS (some centres unmarked) [Compound L744-832],sensitivity of cell line to L744-832,DU145 adenocarcinoma,resistant
same,sensitivity of cell line to L744-832,"HT29, adenocarcinoma",sensitive
